Data on one compound can be found in patent US20180344641A1, “MESOPOROUS SILICA NANOPARTICLES AND SUPPORTED LIPID BI-LAYER NANOPARTICLES FOR BIOMEDICAL APPLICATIONS” (priority 2015, published 2018).

For data set [1] the following is noted: Federico et al., 2012; cited from earlier work.
The subject of the next data set is REH+EGFR cells. The data set is described as follows: Cell viability, CellTiter-Glo 2.0 Assay. Type of data set: cell-based, human. The following applies: free GEM 0 to 30 uM 1 hour, viability at 24 hours. Here is the method:
(§1) Whole human blood was acquired from healthy donors with informed consent and stabilized in K2EDTA tubes (BD Biosciences). hRBCs were purified following reported procedure (Liao et al., 2011), then incubated with either bare mMSNs or protocells (25, 50, 100, 200, and 400 μg/mL) at 37° C. After 3 hours of exposure, samples were centrifuged at 300 g for 3 minutes, then 100 μL of supernatant from each sample was transferred to a 96-well plate. Hemoglobin absorbance was measured using a BioTek microplate reader (Winooski, Vt.) at 541 nm. The percent hemolysis of each sample was quantified using a reported equation (Liao et al., 2011). In addition, we examined the biocompatibility of anti-EGFR targeted protocells in vitro. We incubated about 1.5×10^5 cells/mL of REH and REH+EGFR cell lines with either 12.5, 25, 50, 100, and 200 μg/mL of anti-EGFR targeted protocells in complete medium for 1 hour at 37° C. Cells were washed twice in complete media and transferred to a 96-well plate for 24 hours at 37° C. Cell viability was assessed by CellTiter-Glo® 2.0 Assay as measured by BioTek microplate reader. The cell viability was calculated as a percentage of non-protocell treated sample.
(§2) […] Cell viability was assessed by CellTiter-Glo® 2.0 Assay as measured by BioTek microplate reader. The cell viability was calculated as a percentage of non-protocell treated sample.
(Cellular ATP, detected with luciferase, serves as a proxy for viable cell number.)

The next data set deals with REH cells. Description: Cell viability, CellTiter-Glo 2.0 Assay. It is filed as cell-based, human. As to conditions: free GEM 0 to 30 uM 1 hour, viability at 24 hours. Here is the method: as §1, §2

With `Nc1ccn([C@@H]2O[C@H](CO)[C@@H](O)C2(F)F)c(=O)n1` [GEM, Gemcitabine], in data set [1], the plasma half-life was 8 to 17 min. Further, the “viability of REH+EGFR cells” value in the data set on REH+EGFR cells is “Loss in cell viability of REH and REH+EGFR cells”. Also, the “viability of REH cells” value with REH cells is “Loss in cell viability of REH and REH+EGFR cells”.
